The values that follow come from patent publication US12263171B2, “7-, 8-, and 10-substituted amino triazolo quinazoline derivatives as adenosine receptor antagonists, pharmaceutical compositions and their use” (Merck Sharp & Dohme LLC, priority 2018, dated 2025).

The target in assay [1] is human A2a adenosine receptor (Homo sapiens (Human), UniProt P29274). Put plainly: A2a receptor affinity radioligand binding assay ([3H] SCH58261, membranes from HEK293 or CHO cells). Particulars: unstarred values: radioligand binding. How it is done: The A2a receptor affinity binding assay measured the amount of binding of a tritiated ligand with high affinity for the A2a adenosine receptor to membranes made from HEK293 or CHO cells recombinantly expressing the human A2a adenosine receptor, in the presence of varying concentrations of a compound of the invention.
Chain of human A2a adenosine receptor (P29274 whole entry): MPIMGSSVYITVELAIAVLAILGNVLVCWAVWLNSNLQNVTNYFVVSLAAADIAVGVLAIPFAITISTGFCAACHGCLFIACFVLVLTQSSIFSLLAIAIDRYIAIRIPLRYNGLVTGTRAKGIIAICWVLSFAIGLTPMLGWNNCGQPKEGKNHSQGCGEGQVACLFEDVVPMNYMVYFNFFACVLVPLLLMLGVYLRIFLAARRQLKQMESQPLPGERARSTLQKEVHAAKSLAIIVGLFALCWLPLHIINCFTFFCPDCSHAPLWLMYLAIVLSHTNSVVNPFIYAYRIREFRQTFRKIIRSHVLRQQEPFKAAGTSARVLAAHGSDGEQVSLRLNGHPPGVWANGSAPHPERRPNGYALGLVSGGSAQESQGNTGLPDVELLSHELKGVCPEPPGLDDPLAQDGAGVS
Measurement of A2a Binding Affinity Using Radioligand Binding
148 μL, (5 μg/mL) membranes (Perkin Elmer, Cat. No. RBHA2aM4001A) and 2 μL compounds of the invention to be tested (test compound) were transferred to individual wells of a 96-well polypropylene assay plate and incubated for 15 to 30 minutes at room temperature. [^3H] SCH58261 ((7-(2-phenylethyl)-5-amino-2-(2-furyl)-pyrazolo-[4,3-e]-1,2,4-triazolo[1,5-c]pyrimidine)) was diluted in assay buffer (50 mM Tris pH 7.4, 10 mM MgCl2, 0.005% Tween20) to a concentration of 4 nM and 50 μL transferred to each well of the assay plate. […] The assay plate was incubated at room temperature for 60 minutes with agitation. […] Filtering was achieved by aspirating the contents of the assay plate for 5 seconds, then washing and aspirating the contents three times with ice-cooled wash buffer (50 mM Tris-HCl pH 7.4, 150 mM NaCl) and allowing the vacuum manifold to dry the plate for 30 seconds. The filter plate was incubated for at least 1 hour at 55° C. and allowed to dry. The bottom of the filter plate was sealed with backing tape. 40 μL. […] The plate was incubated for at least 20 minutes, and then the amount of radioactivity remaining in each well was determined using a TopCown® (Perkin Elmer) scintillation counter. After normalization to total and non-specific binding, the percent effect at each compound concentration was calculated. The plot of percent effect versus the log of compound concentration was analyzed electronically using a 4-parameter logistic fit based on the Levenberg-Marquardt algorithm to generate IC50 values.

In assay [2] the target is human A2b adenosine receptor (Homo sapiens (Human), UniProt P29275). Put plainly: A2b radioligand filtration binding assay (tritiated proprietary A2b antagonist, HEK293 membranes). Particulars: for IC50: unstarred values: radioligand binding. The method, then: Measurement of A2b Binding Affinity
Chain of human A2b adenosine receptor (P29275 whole entry): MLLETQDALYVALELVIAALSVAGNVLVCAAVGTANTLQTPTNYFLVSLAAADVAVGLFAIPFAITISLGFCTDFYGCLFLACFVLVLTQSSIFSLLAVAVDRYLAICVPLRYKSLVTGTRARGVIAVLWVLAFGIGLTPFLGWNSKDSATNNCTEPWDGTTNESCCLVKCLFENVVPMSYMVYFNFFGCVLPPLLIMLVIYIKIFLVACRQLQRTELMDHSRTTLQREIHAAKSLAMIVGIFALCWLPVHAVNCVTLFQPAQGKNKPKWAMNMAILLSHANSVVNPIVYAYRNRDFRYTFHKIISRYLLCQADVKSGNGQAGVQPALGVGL
The reported affinity of the compounds of the invention for the human A2b adenosine receptor was determined experimentally using a radioligand filtration binding assay. This assay measures the amount of binding of a tritiated proprietary A2b receptor antagonist, in the presence and absence of a compound of the invention, to membranes made from HEK293 cells recombinantly expressing the human A2b adenosine receptor (Perkin Elmer, Cat. No. ES-013-C).
The filter plate was incubated for at least 1 hour at 55° C. and allowed to dry. The bottom of the filter plate was then sealed with backing tape. […] The plates were then incubated for at least 20 minutes, and then the amount of radioactivity remaining in each well was determined using a TopCount® (Perkin Elmer) scintillation counter. After normalization to total and non-specific binding, the percent effect at each compound concentration was calculated. The plot of percent effect versus the log of compound concentration was analyzed electronically using a 4-parameter logistic fit based on the Levenberg-Marquardt algorithm to generate IC50 values.

Regarding `COc1ccc2c(c1)nc(N)n1nc([C@H]3C[C@@H](F)CN(c4cnn(CC(C)(C)O)c4)C3)nc21` [Example 196A], the results for the IC50 in assay [1] and in assay [2] were 2.9 nM and 802 nM, respectively.

For the compound `COc1cccc2c1nc(N)n1nc([C@@H]3CCCN(c4ccc(=O)n(C)n4)C3)nc21` [Example 98, (R)-6-(3-(5-amino-7-methoxy-[1,2,4]triazolo[1,5-c]quinazolin-2-yl)piperidin-1-yl)-2-methylpyridazin-3(2H)-one], the IC50 in assay [1] is 1.4 nM; in assay [2], 691 nM.

On to `COc1cccc2c1nc(N)n1nc([C@@H]3CCCN(c4cnc(OC(F)F)c(C)c4)C3)nc21` [Example 100, (R)-2-(1-(6-(difluoromethoxy)-5-methylpyridin-3-yl)piperidin-3-yl)-7-methoxy-[1,2,4]-triazolo[1,5-c]quinazolin-5-amine], for which the IC50 in assay [1] came to 0.7 nM; in assay [2], 56.8 nM.

With `COc1cccc2c1nc(N)n1nc([C@@H]3CCCN(c4ccn(C)c(=O)c4)C3)nc21` [Example 87, (R)-4-(3-(5-amino-7-methoxy-[1,2,4]triazolo[1,5-c]quinazolin-2-yl)piperidin-1-yl)-1-methylpyridin-2(1H)-one], the concentration for half-maximal inhibition (IC50) came out at 1.5 nM in assay [1] and 858 nM in assay [2].

`COc1ccc2c(c1)nc(N)n1nc([C@@H]3CCCN(c4cnc(OC(F)F)c(C)c4)C3)nc21` [Example 190, (R)-2-(1-(6-(difluoromethoxy)-5-methylpyridin-3-yl)piperidin-3-yl)-8-methoxy-[1,2,4]triazolo[1,5-c]quinazolin-5-amine]: the IC50 in assay [1] amounted to 10.1 nM; in assay [2], 480 nM.

For `C[C@H]1CC[C@@H](c2nc3c4ccc(C5CCC5)cc4nc(N)n3n2)CN1c1cnn(CC(C)(C)O)c1` [Example 209, 1-(4-((2S,5R)-5-(5-amino-8-cyclobutyl-[1,2,4]triazolo[1,5-c]quinazolin-2-yl)-2-methylpiperidin-1-yl)-1H-pyrazol-1-yl)-2-methylpropan-2-ol], the half-inhibitory concentration (IC50) in assay [1] stood at 28.7 nM; in assay [2] it was 328 nM.

Consider `COc1cccc2c1nc(N)n1nc([C@@H]3CCCN(c4cnn([C@H]5CCCC[C@]5(C)O)c4)C3)nc21` [Example 43, (1S,2S)-2-(4-((R)-3-(5-amino-7-methoxy-[1,2,4]triazolo[1,5-c]quinazolin-2-yl)piperidin-1-yl)-1H-pyrazol-1-yl)-1-methylcyclohexan-1-ol], for which the IC50 in assay [1] was 0.5 nM; in assay [2] it was 1.9 nM.

As for `COc1ccc2c(c1)nc(N)n1nc([C@H]3CC[C@@H](C)N(c4cnn([C@H](C)C(C)(C)O)c4)C3)nc21` [Example 212B, (R)--3-(4-((2R,5S)-5-(5-amino-8-methoxy-[1,2,4]triazolo[1,5-c]quinazolin-2-yl)-2-methylpiperidin-1-yl)-1H-pyrazol-1-yl)-2-methylbutan-2-ol], the half-inhibitory concentration (IC50) in assay [1] worked out at 234 nM; in assay [2], 8280 nM.

With `COc1cccc2c1nc(N)n1nc([C@@H]3CCCN(c4cnn(C5CCOCC5)c4C(F)F)C3)nc21` [Example 49, (R)-2-(1-(5-(difluoromethyl)-1-(tetrahydro-2H-pyran-4-yl)-1H-pyrazol-4-yl)piperidin-3-yl)-7-methoxy-[1,2,4]triazolo[1,5-e]quinazolin-5-amine], the IC50 in assay [1] is 0.2 nM; in assay [2] it was 36 nM.

For `COc1cccc2c1nc(N)n1nc(C3CCCC(c4cnn(CC(C)(C)O)c4)C3)nc21` (single isomer, unassigned) [Example 138], the 50% inhibitory concentration (IC50) in assay [1] is 3.4 nM; in assay [2] it was 425 nM.

As to `CCn1cc(N2C[C@@H](c3nc4c5cccc(OC)c5nc(N)n4n3)CC[C@H]2C)cn1` (single isomer, unassigned) [Example 140A], the IC50 in assay [1] came to 66.8 nM; in assay [2], 5510 nM.

On to `COc1ccc2c(c1)nc(N)n1nc([C@@H]3CC[C@H](C)N(c4cnn(CC(C)(C)O)c4)C3)nc21` [Example 204, 1-(4-((2S,5R)-5-(5-amino-8-methoxy-[1,2,4]triazolo[1,5-c]quinazolin-2-yl)-2-methylpiperidin-1-yl)-1H-pyrazol-1-yl)-2-methylpropan-2-ol], for which the concentration for half-maximal inhibition (IC50) is 0.4 nM in assay [1] and 1.1 nM in assay [2].

In assay [1], `COc1cccc2c1nc(N)n1nc(C3CC(F)CN(c4cnn(CC(C)(C)O)c4)C3)nc21` (stereo not drawn) [Example 149] showed an IC50 of 200 nM. Moreover, the “A2B binding % inh. @ 10000 nM” value in assay [2] (@ 10000 nM, unstarred) was 32% inh. @ 10000 nM.

For `CNC(=O)C(C)(C)n1cc(N2CCC[C@@H](c3nc4c5cccc(OC)c5nc(N)n4n3)C2)cn1` [Example 26, (R)-2-(4-(3-(5-annino-7-methoxy-[1,2,4]triazolo[1,5-c]quinazolin-2-yl)piperidin-1-yl)-1H-pyrazol-1-yl)-N,2-dimethylpropanamide], the IC50 in assay [1] came to 3.5 nM; in assay [2], 2 nM.

Take `COc1cccc2c1nc(N)n1nc([C@@H]3CCCN(c4cnn(CC(F)(F)F)c4)C3)nc21` [Example 9, (R)-7-methoxy-2-(1-(1-(2,2,2-trifluoroethyl)-1H-pyrazol-4-yl)piperidin-3-yl)-[1,2,4]triazolo[1,5-c]quinazolin-5-amine]: the concentration for half-maximal inhibition (IC50) turned out to be 0.7 nM in assay [1] and 1 nM in assay [2].

As to `C[C@H]1CC[C@@H](c2nc3c4ccc(Cl)cc4nc(N)n3n2)CN1c1cnn(CC(C)(C)O)c1` [Example 203, 1-(4-((2S,5R)-5-(5-amino-8-chloro-[1,2,4]triazolo[1,5-c]quinazolin-2-yl)-2-methylpiperidin-1-yl)-1H-pyrazol-1-yl)-2-methylpropan-2-ol], the IC50 in assay [1] was 0.7 nM; in assay [2], 1.7 nM.

In the case of `COc1ccc2c(c1)nc(N)n1nc([C@H]3CC[C@@H](C)N(c4cnn([C@@H](C)C(C)(C)O)c4)C3)nc21` [Example 212A], the IC50 in assay [1] stood at 221 nM; in assay [2], 5480 nM.

With `Cn1cc(N2CCCC(c3nc4c5ccc(F)cc5nc(N)n4n3)C2)cn1` (single isomer, unassigned) [Example 168, (R or S)-8-fluoro-2-(1-(1-methyl-1H-pyrazol-4-yl)piperidin-3-yl)-[1,2,4]triazolo[1,5-c]quinazolin-5-amine], the concentration for half-maximal inhibition (IC50) was 17.4 nM in assay [1] and 150 nM in assay [2].

With `COc1cccc2c1nc(N)n1nc([C@@H]3CCCN(c4cnn(C5CS(=O)(=O)C5)c4)C3)nc21` [Example 121, (R)-3-(4-(3-(5-amino-7-methoxy-[1,2,4]triazolo[1,5-c]quinazolin-2-yl)piperidin-1-yl)-1H-pyrazol-1-yl)thietane 1,1-dioxide], the 50% inhibitory concentration (IC50) in assay [1] is 3.6 nM; in assay [2], 284 nM.

As to `COc1cccc2c1nc(N)n1nc([C@H]3CCO[C@H](c4cnn(C)c4)C3)nc21` [Example 139C], the IC50 in assay [1] was found to be 101 nM; in assay [2], 1820 nM.

In the case of `COc1cccc2c1nc(N)n1nc([C@@H]3CCCN(c4cnn([C@@H]5CCNC5)c4)C3)nc21` [Example 45, 7-methoxy-2-((R)-1-(1-((R)-pyrrolidin-3-yl)-1H-pyrazol-4-yl)piperidin-3-yl)-[1,2,4]triazolo[1,5-c]quinazolin-5-amine], the values for the IC50 in assay [1] and in assay [2] were 2.6 nM and 350 nM, respectively.

For the compound `C[C@H]1CC[C@@H](c2nc3c4ccc(C(F)F)cc4nc(N)n3n2)CN1c1cnn(CC(C)(C)O)c1` [Example 201, 1-(4-((2S,5R)-5-(5-amino-8-(difluoromethyl)-[1,2,4]triazolo[1,5-c]quinazolin-2-yl)-2-methylpiperidin-1-yl)-1H-pyrazol-1-yl)-2-methylpropan-2-ol], the IC50 in assay [1] was 2.8 nM; in assay [2], 10.6 nM.

Take `Cn1cc(N2CCCC(c3nc4c5ccc(Cl)cc5nc(N)n4n3)C2)cn1` (single isomer, unassigned) [Example 200, (R or S)-8-chloro-2-(1-(1-methyl-1H-pyrazol-4-yl)piperidin-3-yl)-[1,2,4]triazolo[1,5-c]quinazolin-5-amine]: the figures for the IC50 in assay [1] and in assay [2] were 11.8 nM and 152 nM, respectively.

Consider `Cn1cc(N2CCCC(c3nc4c5c(Cl)ccc(Cl)c5nc(N)n4n3)C2)cn1` (single isomer, unassigned) [Example 169, (R or S)-7, 10-dichloro-2-(1-(1-methyl-1H-pyrazol-4-yl)piperidin-3-yl)-[1,2,4]triazolo[1,5-c]quinazolin-5-amine], for which the half-inhibitory concentration (IC50) in assay [1] is 7.7 nM; in assay [2], 4160 nM.

The IC50 is the concentration at which inhibition is half-maximal. A low value points to higher potency.
